This is an account of results in ChEMBL document CHEMBL3046028, “3D-QSAR study of tyrosine and propanoic acid derivatives as PPAR/ dual agonists using CoMSIA” (Med Chem Res, 2013).

The target in experiment [1] is T1, Peroxisome proliferator-activated receptor gamma (Homo sapiens, UniProt P37231).
T1 sequence (P37231 whole entry): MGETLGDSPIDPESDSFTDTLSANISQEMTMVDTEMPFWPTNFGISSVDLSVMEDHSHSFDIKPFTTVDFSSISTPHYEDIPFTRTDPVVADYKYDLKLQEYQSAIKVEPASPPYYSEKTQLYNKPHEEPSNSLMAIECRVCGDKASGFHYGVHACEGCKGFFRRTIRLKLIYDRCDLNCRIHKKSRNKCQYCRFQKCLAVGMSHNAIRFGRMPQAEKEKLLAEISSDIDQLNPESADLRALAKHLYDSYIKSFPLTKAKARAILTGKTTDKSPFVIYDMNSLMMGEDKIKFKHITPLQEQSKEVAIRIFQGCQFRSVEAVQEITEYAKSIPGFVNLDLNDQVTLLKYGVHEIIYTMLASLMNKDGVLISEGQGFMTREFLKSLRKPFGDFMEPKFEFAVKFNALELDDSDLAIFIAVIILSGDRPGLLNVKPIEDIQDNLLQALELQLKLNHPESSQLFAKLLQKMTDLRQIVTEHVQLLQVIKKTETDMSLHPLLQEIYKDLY
Format: cell-based, CV-1.
Description: Transactivation of GAL4-fused Homo sapiens (human) PPARgamma DNA binding domain expressed in African green monkey CV1 cells by luciferase reporter gene assay

Experiment [2] has as its target T2, Peroxisome proliferator-activated receptor alpha (Homo sapiens, UniProt Q07869).
T2 sequence (Q07869 whole entry): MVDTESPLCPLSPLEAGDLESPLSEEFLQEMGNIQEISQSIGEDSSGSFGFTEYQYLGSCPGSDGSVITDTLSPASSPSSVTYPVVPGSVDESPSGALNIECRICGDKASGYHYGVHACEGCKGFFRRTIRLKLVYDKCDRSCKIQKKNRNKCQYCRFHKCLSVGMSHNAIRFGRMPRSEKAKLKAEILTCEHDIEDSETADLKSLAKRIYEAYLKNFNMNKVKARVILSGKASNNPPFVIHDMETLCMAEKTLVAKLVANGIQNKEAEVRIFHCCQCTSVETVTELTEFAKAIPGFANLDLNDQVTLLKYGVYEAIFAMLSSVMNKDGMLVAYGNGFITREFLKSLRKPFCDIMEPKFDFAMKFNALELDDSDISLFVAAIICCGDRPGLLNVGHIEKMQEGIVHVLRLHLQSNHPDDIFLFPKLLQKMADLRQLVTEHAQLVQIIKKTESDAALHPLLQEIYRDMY
The experiment in a line: Transactivation of GAL4-fused Homo sapiens (human) PPARalpha […] expressed in African green monkey CV1 cells by luciferase reporter gene assay. The class given is cell-based, CV-1. Background: In a reporter assay the amount or activity of a reporter protein is the signal.

`COC(=O)c1ccccc1[C@@](O)(Cc1ccc(OCCc2nc(-c3ccccc3)oc2C)cc1)C(=O)O`: the EC50 in experiment [1] stood at 0.71 nM; in experiment [2] (read-out: EC50) it was 3.5 µM.
`CCO[C@@H](Cc1ccc(OC/C=C(/c2ccccc2)c2ccc(-c3ccccc3)cc2)cc1)C(=O)O`: in experiment [2] (read-out: pEC50 (converted)), the EC50 was 0.692 µM.
The compound `Cc1oc(-c2ccccc2)nc1CCOc1ccc(C[C@]2(C(=O)O)C=CC=CO2)cc1` returned an EC50 in experiment [1] of 20 nM.
With `Cc1sc(-c2ccccc2)nc1CCOc1ccc(C[C@@](O)(C(=O)O)c2ccccc2C(=O)c2ccccc2)cc1`, the EC50 worked out at 0.1 nM in experiment [1] and 1.05 µM in experiment [2] (read-out: EC50).
Take `Cc1oc(-c2ccccc2)nc1CCOc1ccc(C[C@@]2(C(=O)O)CCOCCO2)cc1`: the figures for the EC50 in experiment [1] and in experiment [2] (read-out: EC50) were 24 nM and 6.9 µM, respectively.
Taken in the same sequence, the figures for `Cc1sc(N2CCN(C)CC2)nc1CCOc1ccc(C[C@@](O)(C(=O)O)c2ccccc2C(=O)c2ccccc2)cc1` were 1.29 nM and 6.46 µM.
The like results for `Cc1oc(-c2ccccc2)nc1CCOc1ccc(C[C@@](O)(C(=O)O)c2ccccc2C(=O)c2ccccc2)cc1` were, in that order, 0.34 nM and 0.457 µM.
Regarding `CCO[C@@H](Cc1ccc(OC/C=C(/c2ccccc2)c2ccc(F)cc2)cc1)C(=O)O`, in experiment [2] (read-out: pEC50 (converted)), the EC50 is 3.16 µM.
